According to US11535630B2, “Apelin receptor (APJ) agonists and uses thereof” (Research Triangle Institute, priority 2015, dated 2022):
Read-outs that look alike come from different tables or passages of the source.

Target: T1, apelin receptor (APJ) (Homo sapiens, UniProt P35414)
T1 sequence (P35414 1-380): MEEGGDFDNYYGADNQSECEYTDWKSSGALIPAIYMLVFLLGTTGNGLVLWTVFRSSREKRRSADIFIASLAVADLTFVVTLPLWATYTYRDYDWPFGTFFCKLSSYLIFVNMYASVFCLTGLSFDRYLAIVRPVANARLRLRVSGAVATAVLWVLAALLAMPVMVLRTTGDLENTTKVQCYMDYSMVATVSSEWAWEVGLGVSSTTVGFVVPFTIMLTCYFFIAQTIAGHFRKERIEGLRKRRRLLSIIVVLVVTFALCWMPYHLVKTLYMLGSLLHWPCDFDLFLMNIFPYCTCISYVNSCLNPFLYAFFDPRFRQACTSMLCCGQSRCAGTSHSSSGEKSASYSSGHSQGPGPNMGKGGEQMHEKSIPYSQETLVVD
Assay: In vitro apelin agonist activity (methods of Giddings et al., Apelin-13 as positive control)
Assay type: cell-based
Details: in vitro apelin agonist activity, methods of Giddings et al., Apelin-13 as positive control
Source text: Characterization of the Apelin Agonist Activity of the Compounds
1:39-47, the contents of which are hereby incorporated by reference in its entirety. Using the methods described in Giddings et al. and Apelin-13 as a positive control.

| Compound | EC50 (read-out: EC50 (nM) Ave) [nM] | EC50 (EC50 (nM) Ave) [nM] |
| --- | --- | --- |
| NS(=O)(=O)C[C@H](CC(=O)N1CCCC(F)(F)C1)NC(=O)c1cc(-c2ccccc2C(F)(F)F)n(C2CCCC2)n1 [compound 540, 1-cyclopentyl-N-[(2S)-4-(3,3-difluoropiperidin-1-yl)-4-oxo-1-sulfamoylbutan-2-yl]-5-[2-(trifluoromethyl)phenyl]-1H-pyrazole-3-carboxamide] | 1380 | – |
| COc1cccc(OC)c1-c1cc(C(=O)N[C@@H](CC2CC2)C(=O)O)nn1C1CCCC1 [compound 385, (2S)-2-{[1-cyclopentyl-5-(2,6-dimethoxyphenyl)-1H-pyrazol-3-yl]formamido}-3-cyclopropylpropanoic acid] | > 10000 | – |
| CC1(C)CN(CC[C@@H](CC(=O)O)NC(=O)c2cc(-c3ccccc3C(F)(F)F)n(C3CCCC3)n2)C1 [compound 588, (3S)-3-({1-cyclopentyl-5-[2-(trifluoromethyl)phenyl]-1H-pyrazol-3-yl]formamido)-5-(3,3-dimethylazetidin-1-yl)pentanoic acid] | 502 | – |
| O=C(O)C[C@H](CCN1CC(F)(F)C1)NC(=O)c1cc(-c2ccccc2C(F)(F)F)n(C2CCCC2)n1 [compound 534, (3S)-3-({1-cyclopentyl-5-[2-(trifluoromethyl)phenyl]-1H-pyrazol-3-yl}formamido)-5-(3,3-difluoroazetidin-1-yl)pentanoic acid] | 388 | – |
| COc1cccc(OC)c1-c1cc(C(=O)N[C@@H](CCc2ccccc2)C(=O)O)nn1CC(C)C [compound 311, (2S)-2-{[5-(2,6-dimethoxyphenyl)-1-(2-methylpropyl)-1H-pyrazol-3-yl]formamido}-4-phenylbutanoic acid] | – | > 10000 |
| O=C(O)C[C@H](CC(=O)N1CCCC(F)(F)C1)NC(=O)c1cc(-c2ccccc2C(F)(F)F)n(C2CCCC2)n1 [compound 509, (3S)-3-({1-cyclopentyl-5-[2-(trifluoromethyl)phenyl]-1H-pyrazol-3-yl}formamido)-5-(3,3-difluoropiperidin-1-yl)-5-oxopentanoic acid] | 1060 | – |
| COc1cccc(OC)c1-c1cc(C(=O)N[C@@H](/C=C/c2cccnc2)CC(=O)NC2CCC2)nn1C1CCCC1 [compound 418, (3R,4E)-N-cyclobutyl-3-{[1-cyclopentyl-5-(2,6-dimethoxyphenyl)-1H-pyrazol-3-yl]formamido}-5-(pyridin-3-yl)pent-4-enamide] | 664 | – |
| CC(F)(F)c1ccccc1-c1cc(C(=O)N[C@@H](CCN2CCC(=O)CC2(C)C)CC(=O)O)nn1C1CCCC1 [compound 611, (3S)-3-({1-cyclopentyl-5-[2-(1,1-difluoroethyl)phenyl]-1H-pyrazol-3-yl}formamido)-5-(2,2-dimethyl-4-oxopiperidin-1-yl)pentanoic acid] | 509 | – |
| COCCN(C)C(=O)C[C@H](CCN1CCCCC1)NC(=O)c1cc(-c2c(OC)cccc2OC)n(C2CCCC2)n1 [compound 334, (3S)-3-{[1-cyclopentyl-5-(2,6-dimethoxyphenyl)-1H-pyrazol-3-yl]formamido}-N-(2-methoxyethyl)-N-methyl-5-(piperidin-1-yl)pentanamide] | 6570 | – |

Continued, in another order:

| EC50 (read-out: EC50 (nM) Ave) [nM] | Compound | EC50 (EC50 (nM) Ave) [nM] |
| --- | --- | --- |
| 182 | O=C(O)C[C@H](CCN1C(=O)CCC1=O)NC(=O)c1cc(-c2ccccc2C(F)(F)F)n(C2CCCC2)n1 [compound 643, (3S)-3-({1-cyclopentyl-5-[2-(trifluoromethyl)phenyl]-1H-pyrazol-3-yl}formamido)-5-(2,5-dioxopyrrolidin-1-yl)pentanoic acid] | – |
| 70 | CN(C(=O)C[C@H](CCN1CCCC(F)(F)C1)NC(=O)c1cc(-c2ccccc2Cl)n(C2CCCC2)n1)c1ncco1 [compound 452, (3S)-3-{[5-(2-chlorophenyl)-1-cyclopentyl-1H-pyrazol-3-yl]formamido}-5-(3,3-difluoropiperidin-1-yl)-N-methyl-N-(1,3-oxazol-2-yl)pentanamide] | – |
| 184 | O=C(O)C[C@H](CCN1CCC[C@@H](F)C1)NC(=O)c1cc(-c2ccccc2C(F)(F)F)n(C2CCCC2)n1 [compound 584, (3S)-3-({1-cyclopentyl-5-[2-(trifluoromethyl)phenyl]-1H-pyrazol-3-yl}formamido)-5-[(3R)-3-fluoropiperidin-1-yl]pentanoic acid] | – |
| 47 | O=C(C[C@H](CC(=O)N1CCCC(F)(F)C1)NC(=O)c1cc(-c2ccccc2C(F)(F)F)n(C2CCCC2)n1)NC1CCC1 [compound 515, (3R)-N-cyclobutyl-3-({1-cyclopentyl-5-[2-(trifluoromethyl)phenyl]-1H-pyrazol-3-yl}formamido)-5-(3,3-difluoropiperidin-1-yl)-5-oxopentanamide] | – |
| 170 | COc1cccc(OC)c1-c1cc(C(=O)N[C@@H](CCN2C(C)CCCC2C)CC(=O)NC2CCC2)nn1C1CCCC1 (stereo partly drawn) [compound 329, (3S)-N-cyclobutyl-3-{[1-cyclopentyl-5-(2,6-dimethoxyphenyl)-1H-pyrazol-3-yl]formamido}-5-(2,6-dimethylpiperidin-1-yl)pentanamide] | – |
| 36 | COc1cccc(OC)c1-c1cc(C(=O)N[C@@H](CCc2ccc(F)cc2)CC(=O)Nc2nccs2)nn1C1CCCC1 [compound 417, (3S)-3-{[1-cyclopentyl-5-(2,6-dimethoxyphenyl)-1H-pyrazol-3-yl]formamido}-5-(4-fluorophenyl)-N-(1,3-thiazol-2-yl)pentanamide] | – |
| 161 | CN(C(=O)C[C@H](CCN1CCCC[C@@H]1C(F)(F)F)NC(=O)c1cc(-c2ccccc2C(F)(F)F)n(C2CCCC2)n1)c1nccs1 [compound 489, (3S)-3-({1-cyclopentyl-5-[2-(trifluoromethyl)phenyl]-1H-pyrazol-3-yl}formamido)-N-methyl-N-(1,3-thiazol-2-yl)-5-[(2R)-2-(trifluoromethyl)piperidin-1-yl]pentanamide] | – |
| 2.76 | O=C(C[C@H](CCN1CCC(F)(F)C1)NC(=O)c1cc(-c2ccccc2C(F)(F)F)n(C2CCCC2)n1)NC1CCC1 [compound 480, (3S)-N-cyclobutyl-3-({1-cyclopentyl-5-[2-(trifluoromethyl)phenyl]-1H-pyrazol-3-yl}formamido)-5-(3,3-difluoropyrrolidin-1-yl)pentanamide] | – |
| 109 | O=C(O)C[C@H](CCN1C[C@H](F)[C@@H](F)C1)NC(=O)c1cc(-c2ccccc2C(F)(F)F)n(C2CCCC2)n1 [compound 582, (3S)-3-({1-cyclopentyl-5-[2-(trifluoromethyl)phenyl]-1H-pyrazol-3-yl}formamido)-5-[(3S,4S)-3,4-difluoropyrrolidin-1-yl]pentanoic acid] | – |
| 114 | COc1cccc(OC)c1-c1cc(C(=O)N[C@H](CC(=O)NC2CCC2)Cc2ccccc2)nn1CC(C)C [compound 321, (3S)-N-cyclobutyl-3-{[5-(2,6-dimethoxyphenyl)-1-(2-methylpropyl)-1H-pyrazol-3-yl]formamido}-4-phenylbutanamide] | – |
| 31 | COc1cccc(OC)c1-c1cc(C(=O)N[C@@H](CCN2CCCCC2)CC(=O)Nc2ncco2)nn1C1CCCC1 [compound 339, (3S)-3-{[1-cyclopentyl-5-(2,6-dimethoxyphenyl)-1H-pyrazol-3-yl]formamido}-N-(1,3-oxazol-2-yl)-5-(piperidin-1-yl)pentanamide] | – |
| 310 | O=C(O)C[C@H](CCN1CC2CCC(C1)C2(F)F)NC(=O)c1cc(-c2ccccc2C(F)(F)F)n(C2CCCC2)n1 [compound 606, (3S)-3-({1-cyclopentyl-5-[2-(trifluoromethyl)phenyl]-1H-pyrazol-3-yl}formamido)-5-{8,8-difluoro-3-azabicyclo[3.2.1]octan-3-yl}pentanoic acid] | – |
